The values that follow come from patent US20100168176A1, “NOVEL COMPOUNDS, PHARMACEUTICAL COMPOSITIONS CONTAINING SAME, AND METHODS OF USE FOR SAME” (FASGEN LLC, priority 2006, published 2010).

Converted amounts (≈) assume the structure as drawn.

What all share (type): cell-based
Experiment [1] has as its system MCF-7 human breast cancer cells. Briefly: XTT cytotoxicity assay, MCF-7 (M). Particulars: Homo sapiens, MCF7; (M) or no code; MCF-7, 72 hours. How it is done: The XTT assay is a non-radioactive alternative for the [^51Cr] release cytotoxicity assay. XTT is a tetrazolium salt that is reduced to a formazan dye only by metabolically active, viable cells. The reduction of XTT is measured spectrophotometrically as OD490-OD650.
To measure the cytotoxicity of specific compounds against cancer cells, 9×10^3 MCF-7 human breast cancer cells, obtained from the American Type Culture Collection are plated per well in 96 well plates in DMEM medium with 10% fetal bovine serum, insulin, penicillin, and streptomycin. Following overnight culture at 37° C. and 5% CO2, the compounds to be tested, dissolved in DMSO, are added to the wells in 1 μl volume at the following concentrations: 80, 40, 20, 10, 5, 2.5, 1.25, and 0.625 μg/ml in triplicate. Additional concentrations are tested if required. 1 μl of DMSO is added to triplicate wells are the vehicle control. C75 is run at 40, 20, 10, […], 10, and 5 in triplicate as positive controls.
After 72 hours of incubation, cells are incubated for 4 hours with the XTT reagent as per manufacturer's instructions (Cell Proliferation Kit II (XTT) Roche). Plates are read at OD490 and OD650 on a Molecular Devices SpectraMax Plus Spectrophotometer. Three wells containing the XTT reagent without cells serve as the plate blank. XTT data are reported as OD490-OD650. Averages and standard error of the mean are computed using SOFTmax Pro software ([…]).
The IC50 for the compounds is defined as the concentration of drug leading to a 50% reduction in OD400-OD650 compared to controls. The OD400-OD650 are computed by the SOFTmax PRO software (Molecular Devices) for each compound concentration. IC50 is calculated by linear regression, plotting the FAS activity as percent of control versus drug concentrations. Linear regression, best-fit line, r^2, and 95% confidence intervals are determined using Prism Version 3.0 (Graph Pad Software).
(Formazan colour is commonly taken as a measure of viable cells.)

A further experiment concerns OV. The experiment in a line: XTT cytotoxicity assay, OV.
The test system of experiment [2] is MCF-7 human breast cancer cells. The experiment in a line: Crystal violet cell growth assay, MCF-7. To be noted: MCF7, no cell code printed, MCF-7 per method, 72 hours, read-out: Cr. Violet (IC50). How it is done: Crystal Violet Cell Growth Assay
The crystal violet assay measure cell growth but not cytotoxicity. This assay employs crystal violet staining of fixed cells in 96-well plates with subsequent solubilization and measurement of OD490 on a spectrophotometer. The OD490 corresponds to cell growth per unit time measured. Cells are treated with the compounds of interest or vehicle controls and IC50 for each compound is computed.
To measure the cytotoxicity of specific compounds against cancer cells, 5×10^4 MCF-7 human breast cancer cells, obtained from the American Type Culture Collection are plated per well in 24 well plates in DMEM medium with 10% fetal bovine serum, penicillin, and streptomycin. Following overnight culture at 37° C. and 5% CO2, the compounds to be tested, dissolved in DMSO, are added to the wells in 1 μl volume at the following concentrations: 50, 40, 30, 20, and 10 μg/ml in triplicate. […]
After 72 hours of incubation, cells are stained with 0.5 ml of Crystal Violet stain (0.5% in 25% methanol) in each well. […] Following transfer of 100 μl from each well to a 96-well plate, plates are read at OD490 on a Molecular Devices SpectraMax Plus Spectrophotometer Average OD490 values are computed using SOFTmax Pro Software (Molecular Devices) and IC50 values are determined by linear regression analysis using Prism version 3.02 (Graph Pad Software, San Diego).

The term IC50 denotes the concentration that inhibits the measured activity by half. With `CCCCCCCCC1(C)SC(=O)C=C1OCC(=O)NNc1ccccc1Cl` (stereo not drawn) [Compound 19, (5-Methyl-5-octyl-2-oxo-thiophen-4-yloxy)-acetic-acid-N′-(2-chlorophenyl)-hydrazide], the concentration for half-maximal inhibition (IC50) was found to be 6.1 ± 0.3 µg/mL (≈ 14.4 µM) in experiment [1], 9.4 µg/mL (≈ 22.1 µM) with OV and 7.6 µg/mL (≈ 17.9 µM) in experiment [2].
In the same order, the values of `CCCCCCCCC1(C)SC(=O)C=C1OCC(=O)NNC(=O)c1ccncc1` (stereo not drawn) [Compound 20] are 22.5 ± 2 µg/mL (≈ 53.6 µM), 33 ± 9.1 µg/mL (≈ 78.7 µM) and 18.2 µg/mL (≈ 43.4 µM).
